What all share (type): functional
For one experiment, the system named is Trogoderma granarium. Put plainly: Antifeedant activity against Trogoderma granarium (khapra beetle) in compound treated wheat wafer disks assessed as antifeedant index by no-choice/two-choice assay.
A further experiment relates to Tribolium confusum. Put plainly: Antifeedant activity against Tribolium confusum (confused flour beetle) in compound treated wheat wafer discs assessed as antifeedant index by no-choice/two-choice assay.
The subject of another experiment is Sitophilus granarius. In words: Antifeedant activity against Sitophilus granarius (granary weevil) in compound treated wheat wafer disks assessed as antifeedant index by no-choice/two-choice assay.

As for `C=C(C)C(=O)O[C@H]1CC(=C)[C@@H]2C[C@H](O)C(=C)[C@@H]2[C@H]2OC(=O)C(=C)[C@@H]21` [AGUERIN B], the Activity was found to be 116.5 in the experiment with Trogoderma granarium, 114.5 in the experiment on Tribolium confusum and 94.7 with Sitophilus granarius.
For `C=C(CO)C(=O)O[C@H]1CC(=C)[C@@H]2C[C@H](O)C(=C)[C@@H]2[C@H]2OC(=O)C(=C)[C@@H]21` [CYNAROPICRIN], in that order: 49.5, 98.8 and 51.6.
Take `C=C(CO)C(=O)O[C@H]1CC(=C)[C@@H]2C[C@H](O)[C@]3(CO3)[C@@H]2[C@H]2OC(=O)C(=C)[C@@H]21` [JANERIN]: the figures for the Activity with Trogoderma granarium, with Tribolium confusum and in the experiment on Sitophilus granarius were 95, 104 and 69, respectively.
`COc1cc(/C=C/CO)cc(OC)c1O[C@@H]1O[C@H](CO)[C@@H](O)[C@H](O)[C@H]1O` [SYRINGIN]: the Activity in the experiment on Trogoderma granarium worked out at 61.7; with Tribolium confusum, 125.6; in the experiment on Sitophilus granarius, 134.4.
